Laboratory results taken from patent publication US20210300943A1, “OGA INHIBITOR COMPOUNDS” (Janssen Pharmaceutica NV, priority 2018, published 2021).

Target: T1, OGA (Homo sapiens, UniProt O60502)
T1 construct: endogenous in cells; host or cells: HEK293 cells inducible for P301L mutant human Tau (2N4R)
T1 sequence (O60502 1-916): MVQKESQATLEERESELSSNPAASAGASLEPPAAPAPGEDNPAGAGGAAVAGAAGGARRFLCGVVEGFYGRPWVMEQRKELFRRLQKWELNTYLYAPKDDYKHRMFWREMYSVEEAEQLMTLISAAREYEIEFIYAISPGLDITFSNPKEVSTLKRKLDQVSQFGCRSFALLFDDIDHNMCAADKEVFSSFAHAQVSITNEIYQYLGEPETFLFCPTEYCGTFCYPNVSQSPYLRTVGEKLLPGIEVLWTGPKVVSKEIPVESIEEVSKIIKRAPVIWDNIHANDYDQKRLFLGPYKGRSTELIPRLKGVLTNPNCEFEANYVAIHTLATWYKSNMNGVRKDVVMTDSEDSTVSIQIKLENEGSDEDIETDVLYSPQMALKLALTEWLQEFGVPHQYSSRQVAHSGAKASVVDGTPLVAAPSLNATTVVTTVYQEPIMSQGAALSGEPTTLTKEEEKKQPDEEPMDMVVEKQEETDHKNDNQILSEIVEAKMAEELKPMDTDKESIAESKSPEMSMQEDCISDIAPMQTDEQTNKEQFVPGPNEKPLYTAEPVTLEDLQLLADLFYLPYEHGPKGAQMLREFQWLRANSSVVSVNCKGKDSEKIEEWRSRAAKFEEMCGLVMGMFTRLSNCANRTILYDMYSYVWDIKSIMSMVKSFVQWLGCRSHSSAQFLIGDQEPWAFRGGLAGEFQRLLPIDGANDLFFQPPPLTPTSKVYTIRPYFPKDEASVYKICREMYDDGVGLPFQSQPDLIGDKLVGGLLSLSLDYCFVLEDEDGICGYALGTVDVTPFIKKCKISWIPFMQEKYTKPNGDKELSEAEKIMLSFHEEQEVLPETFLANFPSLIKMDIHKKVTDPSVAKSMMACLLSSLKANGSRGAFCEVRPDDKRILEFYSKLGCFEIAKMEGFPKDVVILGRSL
Assay: OGA cellular assay (ICC detection of O-GlcNAcylated proteins in HEK293 cells inducible for P301L mutant human Tau)
Format: cell-based
Conditions: for EC50: 6 hours incubation, read-out: Cellular hOGA, pEC50 (converted)
Outline: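 HEK293 cells inducible for P301L Tau, in low-glucose assay medium, treated 6 h with compound at 0.2% DMSO. O-GlcNAcylated proteins detected by CTD110.6 immunostaining, imaged at 488 nm with Hoechst nuclear counts for toxicity. IC50 from non-linear regression, 200 uM Thiamet G as maximum.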

[1] = HEK293 cells inducible for P301L mutant human Tau

With `Cc1cc([C@H]2CCCN(C(C)c3cnc4c(c3)OCCN4)C2)cc(C)n1` (single isomer, unassigned) [Product 135] the Emax (HEK293, HEK293 cells inducible for P301L mutant human Tau, maximal effect, Thiamet G 200 uM as maximum) was 68% and the EC50 [1] was 25.1 nM.

In the case of `Cc1cc(OC[C@H]2CCCN(C(C)c3nc4c(cc3F)OCCO4)C2)cc(C)n1` (single isomer, unassigned) [Product 155], the EC50 [1] is reported as 2.57 nM and the “Cellular Emax (%)” value (HEK293 cells inducible for P301L mutant human Tau, maximal effect, Thiamet G 200 uM as maximum) is reported as 95%.
